Two compounds from patent US10369123B2, “Perk activator for the treatment of neurodegenerative diseases” (DEUTSCHES ZENTRUM FÜR NEURODEGENERATIVE ERKRANKUNGEN E.V. …, priority 2014, dated 2019) can be followed below.

The subject of one assay is LUHMES neurons. The assay is described as follows: ATP assay, annonacin-treated LUHMES neurons. In kind it is cell-based, human. Particulars: annonacin + PERK activator 200 nM or PERK inhibitor 300 nM, 48 h, vs no PERK modulator. As to the method:
(§1) Nunc™ Nunclon™ Delta 6-well (for protein and mRNA) or 48-well (for cell assays) plates (Thermo Fisher Scientific, Waltham, Mass., USA) were coated with 100 μg/ml poly-L-lysine (Sigma-Aldrich, St. Louis, Mo., USA) and 5 μg/ml fibronectin (Sigma-Aldrich). LUHMES (Lund Human Mesencephalic) cells, derived from human embryonic ventral mesencephalic cells by conditional immortalization (Tet-off v-myc over-expression) were seeded out in a concentration of 130,000 cells/cm^2 to achieve a confluence of 50%. They were then differentiated for 8 days in a medium of DMEM/F12 (Sigma-Aldrich), 1 μg/ml tetracycline, […] and 490 μg/ml dbcAMP into post-mitotic neurons with a dopaminergic phenotype (Lotharius et al. 2005).
For all experiments with annonacin, the medium was replaced during the intoxication period with new medium containing glucose levels reduced to 250 μM, i.e. the physiological concentration in the human brain.
ATP assays were conducted using the ViaLight™ plus kit by Lonza according to the manufacturer's instructions. Luminescence was read with the FLUOstar Omega (BMG Labtech) platereader. The data was analyzed using the MARS Data Analysis Software (BMG Labtech) and Prism 6.

In a further assay the target is T1, PERK (Homo sapiens, UniProt Q9NZJ5).
T1 sequence (Q9NZJ5 30-1116): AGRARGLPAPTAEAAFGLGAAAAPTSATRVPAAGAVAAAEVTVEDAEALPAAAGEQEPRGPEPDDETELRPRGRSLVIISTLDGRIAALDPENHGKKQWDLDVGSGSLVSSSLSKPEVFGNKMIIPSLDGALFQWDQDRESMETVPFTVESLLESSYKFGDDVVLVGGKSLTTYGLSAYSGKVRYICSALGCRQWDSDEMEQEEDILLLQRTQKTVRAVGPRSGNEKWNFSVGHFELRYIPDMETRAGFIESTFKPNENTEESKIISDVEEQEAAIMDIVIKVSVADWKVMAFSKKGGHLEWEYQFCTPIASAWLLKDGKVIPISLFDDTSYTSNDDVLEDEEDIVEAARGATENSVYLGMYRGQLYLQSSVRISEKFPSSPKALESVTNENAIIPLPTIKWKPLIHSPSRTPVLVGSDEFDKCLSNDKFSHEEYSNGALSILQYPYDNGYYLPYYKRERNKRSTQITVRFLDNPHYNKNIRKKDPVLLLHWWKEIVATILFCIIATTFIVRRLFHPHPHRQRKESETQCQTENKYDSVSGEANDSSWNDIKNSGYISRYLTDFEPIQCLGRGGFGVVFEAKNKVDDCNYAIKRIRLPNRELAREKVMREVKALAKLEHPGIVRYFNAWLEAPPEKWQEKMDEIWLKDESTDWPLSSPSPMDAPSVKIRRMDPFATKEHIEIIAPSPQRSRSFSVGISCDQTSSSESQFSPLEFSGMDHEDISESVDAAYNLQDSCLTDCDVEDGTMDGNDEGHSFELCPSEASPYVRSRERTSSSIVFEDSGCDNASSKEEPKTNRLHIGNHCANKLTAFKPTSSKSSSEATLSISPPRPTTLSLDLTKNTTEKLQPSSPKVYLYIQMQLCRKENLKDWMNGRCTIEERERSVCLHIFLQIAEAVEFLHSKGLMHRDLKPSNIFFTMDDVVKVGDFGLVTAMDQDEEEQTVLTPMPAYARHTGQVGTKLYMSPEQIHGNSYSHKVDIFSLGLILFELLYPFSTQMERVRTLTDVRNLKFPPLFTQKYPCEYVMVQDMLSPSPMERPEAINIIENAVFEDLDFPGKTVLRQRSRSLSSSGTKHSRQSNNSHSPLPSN
The assay is described as follows: Western blot for pEIF2A and pNRF2, annonacin model of tauopathy. Particulars: in the presence of 25 nM annonacin, 48 h. The class given is cell-based. The arrangement: endogenous in cells; host or cells: LUHMES neurons (differentiated, human); in A5 transduced with lentivirus for 3R-/4R-tau or mCherry, not for PERK. As to the method: as §1, with “2005). […]” for “2005).”
Protein was extracted by scraping the cells from the culture plate with Mammalian Protein Extraction Reagent (M-PER, Thermo Fisher Scientific) and 1× cOmplete Protease Inhibitor Cocktail Tablets (Hoffmann-La Roche, Basel, Switzerland) and 1× PhosSTOP Phosphatase Inhibitor Cocktail Tablets (Hoffmann-La Roche). […] Protein concentrations were determined using the BCA kit (Thermo Fisher Scientific) by heating the samples at 60° C. for 30 min and measuring the absorption on the NanoDrop 2000c Spectrophotometer (Thermo Fisher Scientific). […]

SMILES strings stand for the structures. Entries after “also recorded” stand apart in the source; their conditions may differ.

Consider `CCN(CC)CCC(=O)N1N=C(c2c(-c3ccccc3)c3cc(Br)ccc3[nH]c2=O)CC1c1ccc(Br)cc1` (stereo not shown) [CCT020312, 6-bromo-3-[5-(4-bromo-phenyl)-1-(3-diethylamino-propionyl)-4,5-dihydro-1H-pyrazol-3-yl]-4-phenyl-1H-quinolin-2-one], for which the “ATP concentration, effect of co-treatment” value in the assay on LUHMES neurons was “significant improvement”. Besides, the pNRF2 level entry on PERK (PERK activator 200 nM) was “increased only pNRF2 significantly”.

`Cn1cc(-c2ccc3c(c2)CCN3C(=O)Cc2cccc(C(F)(F)F)c2)c2c(N)ncnc21` [GSK2606414, reference compound]: the “ATP concentration, effect of co-treatment” value in the assay with LUHMES neurons is recorded as “slightly improved ATP concentrations at the single annonacin concentration of 12.5 nM; also recorded: significant only at an annonacin concentration of 12.5 nM”. The pEIF2A level entry on PERK (PERK inhibitor 300 nM) is on record as “reduced pEIF2A levels significantly”.
